# Data taken from ChEMBL document CHEMBL5365468, “Discovery of a novel series of medium-sized cyclic enteropeptidase inhibitors” (Bioorg Med Chem, 2023).
# What was measured:
# Enteropeptidase [1] = molecular target: T1, Enteropeptidase (Homo sapiens, UniProt P98073); test: Inhibition of human recombinant enteropeptidase using 5FAM-Abu-Gly-Asp-Asp-Asp-Lys-Ile-Val-Gly-Gly-Lys(CPQ2)-Lys-Lys-NH2 as substrate incubated for 6 mins by fluorescence plate reader analysis
# Enteropeptidase [2] = molecular target: T1, Enteropeptidase; test: Inhibition of human recombinant enteropeptidase using 5FAM-Abu-Gly-Asp-Asp-Asp-Lys-Ile-Val-Gly-Gly-Lys(CPQ2)-Lys-Lys-NH2 as substrate incubated for 120 mins by fluorescence plate reader analysis
# [3] = In vivo inhibition of enteropeptidase in D12079B diet-induced obese C57BL/6J mouse model assessed as fold increase in fecal protein output at 10 mg/kg, po measured overnight relative to N-({4-[(4-carbamimidamidobenzoyl)oxy]phenyl}acetyl)-L-aspartic acid hydrochloride; type: functional
# [4] = Oral bioavailability in mouse assessed as ratio of dose normalized oral AUC to intravenous AUC at 10 mg/kg by LC-MS/MS analysis; type: ADME, organism-based; settings: in vivo
# [5] = Drug absorption in mouse intestine assessed as fraction of drug absorbed into portal vein at 10 mg/kg, po by LC-MS/MS analysis; type: ADME, organism-based; settings: in vivo
# [6] = Inhibition of rat recombinant enteropeptidase catalytic domain (818 to 1057 residues) using 5FAM-Abu-Gly-Asp-Asp-Asp-Lys-Ile-Val-Gly-Gly-Lys(CPQ2)-Lys-Lys-NH2 as substrate incubated for 120 mins by fluorescence plate reader analysis
# [7] = Drug absorption in dog intestine assessed as fraction of drug absorbed into portal vein at 1 mg/kg, po by LC-MS/MS analysis; type: ADME, organism-based, Canis lupus familiaris; settings: in vivo
# [8] = Drug absorption in monkey intestine assessed as fraction of drug absorbed into portal vein at 1 mg/kg, po by LC-MS/MS analysis; type: ADME, organism-based, Macaca mulatta; settings: rhesus monkey, in vivo
# [9] = Drug metabolism in Sprague-Dawley rat assessed as open-ring type hydrolyzed metabolite formation in plasma at 100 mg/kg, po by LC-MS/MS analysis; type: ADME, organism-based; settings: in vivo
# [10] = Oral bioavailability in dog assessed as ratio of dose normalized oral AUC to intravenous AUC at 1 mg/kg by LC-MS/MS analysis; type: ADME, organism-based, Canis lupus familiaris; settings: in vivo
# [11] = Drug absorption in rat intestine assessed as fraction of drug absorbed into portal vein at 10 mg/kg, po by LC-MS/MS analysis; type: ADME, organism-based; settings: in vivo
# [12] = Oral bioavailability in rat assessed as ratio of dose normalized oral AUC to intravenous AUC at 10 mg/kg by LC-MS/MS analysis; type: ADME, organism-based; settings: in vivo
# [13] = Oral bioavailability in monkey assessed as ratio of dose normalized oral AUC to intravenous AUC at 1 mg/kg by LC-MS/MS analysis; type: ADME, organism-based, Macaca mulatta; settings: rhesus monkey, in vivo
# Enteropeptidase [14] = molecular target: T1, Enteropeptidase; test: Inhibition of human recombinant enteropeptidase using 5FAM-Abu-Gly-Asp-Asp-Asp-Lys-Ile-Val-Gly-Gly-Lys(CPQ2)-Lys-Lys-NH2 as substrate assessed as dissociation half life preincubated with compound for 2 hrs followed by substrate addition and measured every 2 mins by fluorescence based analysis
# [15] = Stability of the compound at pH 1.2 assessed as drug decomposition at 10 ug/ml incubated for 24 hrs by HPLC analysis; type: physicochemical; settings: buffer, at 10 µg/mL, read-out: Drug degradation
# [16] = Stability of the compound at pH 6.8 assessed as drug decomposition at 10 ug/ml incubated for 24 hrs by HPLC analysis; type: physicochemical; settings: buffer, at 10 µg/mL, read-out: Drug degradation
# T1 sequence (P98073 2-784 limits assumed): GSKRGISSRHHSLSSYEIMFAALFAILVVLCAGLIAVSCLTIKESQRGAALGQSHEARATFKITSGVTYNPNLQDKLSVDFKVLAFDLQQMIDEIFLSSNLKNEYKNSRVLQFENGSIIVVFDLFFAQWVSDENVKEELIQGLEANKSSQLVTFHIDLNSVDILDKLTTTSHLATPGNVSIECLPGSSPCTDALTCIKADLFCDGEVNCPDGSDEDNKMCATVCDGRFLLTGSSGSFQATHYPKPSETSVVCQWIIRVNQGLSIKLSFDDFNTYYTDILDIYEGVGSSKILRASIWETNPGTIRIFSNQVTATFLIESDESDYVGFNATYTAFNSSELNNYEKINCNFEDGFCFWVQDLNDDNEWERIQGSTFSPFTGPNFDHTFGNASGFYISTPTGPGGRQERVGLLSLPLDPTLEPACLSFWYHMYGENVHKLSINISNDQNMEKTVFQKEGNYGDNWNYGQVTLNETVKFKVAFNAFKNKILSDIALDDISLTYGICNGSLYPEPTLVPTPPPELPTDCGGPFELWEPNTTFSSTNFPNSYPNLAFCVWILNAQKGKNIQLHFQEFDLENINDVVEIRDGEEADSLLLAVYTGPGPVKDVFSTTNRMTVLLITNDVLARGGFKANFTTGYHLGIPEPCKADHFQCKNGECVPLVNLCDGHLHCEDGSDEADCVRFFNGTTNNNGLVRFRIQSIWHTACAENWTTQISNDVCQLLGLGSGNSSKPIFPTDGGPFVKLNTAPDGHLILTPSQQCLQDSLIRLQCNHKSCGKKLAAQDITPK
# T1 sequence (P98073 785-1019 limits assumed): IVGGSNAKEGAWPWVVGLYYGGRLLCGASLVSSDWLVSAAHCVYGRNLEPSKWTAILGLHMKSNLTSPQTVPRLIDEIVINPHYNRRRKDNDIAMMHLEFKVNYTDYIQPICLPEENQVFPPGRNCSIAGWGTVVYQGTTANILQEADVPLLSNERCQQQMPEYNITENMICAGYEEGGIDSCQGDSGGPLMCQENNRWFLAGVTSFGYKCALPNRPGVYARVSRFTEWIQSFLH
Compound,IC50 (Enteropeptidase [1]),IC50 (Enteropeptidase [2]),fold change (FC) [3],T1/2 (Enteropeptidase [14]),other results
N=C(N)Nc1ccc2c(c1)CCCCCCc1c(cccc1C(=O)N[C@@H](CC(=O)O)C(=O)O)OC2=O,2500 nM,81 nM,,,
N=C(N)Nc1ccc2c(c1)CCCOc1c(cccc1C(=O)N[C@@H](CC(=O)O)C(=O)O)OC2=O,9.4 nM,0.41 nM,1.72,> 2 h,bioavailability [4]: 1.1%; FaFg [5]: 1.9%; IC50 [6]: 0.62 nM; FaFg [7]: 3.4%; FaFg [8]: 0.3%; Drug metabolism [9]: Metabolite_Detected; bioavailability [10]: 2.8%; FaFg [11]: 1.2%; bioavailability [12]: 1%; bioavailability [13]: 0.3%
Cc1c(OC(=O)c2ccc(NC(=N)N)cc2)cccc1C(=O)N[C@@H](CC(=O)O)C(=O)O,69 nM,4.4 nM,,,
N=C(N)Nc1ccc2c(c1)CCCCOc1c(cccc1C(=O)N[C@@H](CC(=O)O)C(=O)O)OC2=O,26 nM,1.7 nM,,> 2 h,
N=C(N)Nc1ccc2c(c1)OCCCc1c(cccc1C(=O)N[C@@H](CC(=O)O)C(=O)O)OC2=O,8.7 nM,0.69 nM,,0.27 h,
N=C(N)Nc1ccc2c(c1)CCCc1c(cccc1C(=O)N[C@@H](CC(=O)O)C(=O)O)OC2=O,430 nM,22 nM,,,
Cc1ccc(C(=O)N[C@@H](CC(=O)O)C(=O)O)cc1OC(=O)c1ccc(NC(=N)N)cc1,> 3300 nM,710 nM,,,
N=C(N)Nc1ccc2c(c1)CCCCCc1c(cccc1C(=O)N[C@@H](CC(=O)O)C(=O)O)OC2=O,96 nM,2.9 nM,1.15,> 2 h,"degraded at 24 h, 10 ug/ml [15]: 0.4%; degraded at 24 h, 10 ug/ml [16]: 0.6%"
N=C(N)Nc1ccc2c(c1)CCCCc1c(cccc1C(=O)N[C@@H](CC(=O)O)C(=O)O)OC2=O,93 nM,3.2 nM,1.13,> 2 h,"degraded at 24 h, 10 ug/ml [15]: 1.2%; degraded at 24 h, 10 ug/ml [16]: 3.4%"
